This data set in a line: Measurement of pKa by titration with NaOH solution in water/acetone. It is filed as physicochemical. As to conditions: for Measured pKa Exp. Ex. 2: monomer, titration with NaOH solution in water/acetone, room temperature. On the procedure:
In a solution of water/acetone of 10/15 ml was put 0.7865 g of CH2═CHCH2C(CF3)2OH, followed by stirring at room temperature. After it was confirmed that the solution became homogeneous, titration was carried out with a 0.2 mol/liter NaOH solution. A titration curve was obtained by adding a NaOH solution dropwise in increments of 0.15 ml and recording a pH value at every addition. An equivalence point was determined by an inflection point (maximum differential value of titration curve=dpH/dml) of the titration curve. In this case, the equivalence point was 14.5 ml. […] From a titration curve of water/acetone solution and aqueous solution which had been measured previously as a blank solution, a difference in a pH value derived from an electric potential difference between the solutions at titration of 7.25 ml was 1.29.
In case of titration of 1.0865 g of CH2═CHCH2C(CF3)2OH by the same procedures as above, an equivalence point was 20.15 ml and a half of equivalence point was 10.08 ml. A pH value at a half of the equivalence point was 10.78.
When the same procedures as above were carried out except that about 0.05 mol/liter NaOH solution was used as a titration solution, an equivalence point of 0.115 g of CH2═CHCH2C(CF3)2OH was 8.00 ml and a half of equivalence point was 4.00 ml. A pH value at this time was 10.92.
From those experiments carried out three times, a pKa value of CH2═CHCH2C(CF3)2OH was determined as 9.6.
With respect to the various fluorine-containing ethylenic monomers having OH group shown in Table 1, a pKa value was measured by the same procedures as above.

In general, pKa refers to the pH at which an ionisable group is half protonated.

Take `C=C(F)C(F)(F)OC(F)(C(F)(F)F)C(F)(F)OC(F)(CO)C(F)(F)F` (stereo not shown) [perfluoro-(1,1,1,9,9-tetrahydro-2,5-bistrifluoromethyl-3,6-dioxanonenol)]: the “Measured pKa Exp. Ex. 2” value was determined as 12.6.
In turn, `OC(C(F)=C(F)F)(C(F)(F)F)C(F)(F)F` [Prep. Ex. 1, 1,1-bistrifluoromethyl-2,3,3-trifluoro-2-propene-1-ol] displayed a pKa of 7.1.
Same read-out and setting: in the case of `C=C(F)C(O)(C(F)(F)F)C(F)(F)F` [Ex. 4, 1,1-bistrifluoromethyl-2-fluoro-2-propene-1-ol] it was 8.
Regarding CH2═CHCH2C(CF3)2OH, the “Measured pKa Exp. Ex. 2” value amounted to 9.6. Further, the “pKa value (single titration)” value (0.115 g, about 0.05 mol/liter NaOH) was determined as 9.54. Further, where the note is “0.7865 g, 0.2 mol/liter NaOH, water/acetone 10/15 ml”, the “pKa value (single titration)” value was 9.69. Further, the “pKa value (single titration)” value (1.0865 g, 0.2 mol/liter NaOH) is given as 9.64.
